US11160839B2, “Pediococcus pentosaceus CCFM1012 and application thereof to preparation of Campylobacter jejuni infection antagonism medicine” (Jiangnan University, priority 2018, dated 2021)

System: C. jejuni NCTC11168
Assay: Oxford cup inhibition zone test of lactic acid bacteria fermented supernate on Columbia blood agar
Format: cell-based
Settings: Campylobacter jejuni, positive control 0.30 mg/mL, 48 h at 37° C., read-out: Diameter of inhibition zone

## CCn1cc(C(=O)O)c(=O)c2cc(F)c(N3CCNCC3)cc21 [norfloxacin]
  zone of inhibition at 300 µg/mL: 19.7 ± 0.83 mm
